Experimental data reported in patent US8039501B2, “Synephrine derivatives useful as anti-inflammatory agents” (Universiteit Gent, priority 2005, dated 2011).
Residues, ends and D or L forms follow the SMILES beside them. *: point of attachment. Cbz = O=C(OCc1ccccc1)*

Legend:
MM1.S cell lines = experiment: Annexin V/PI assay in MM1.S cells; type: cell-based, human; details: positive control, FIG. 13
Experimental: 1. […] Procedure: • Human multiple myeloma cell lines L363, U266, MM1.S and MMR.1 are cultured in RPMI 1640 with Glutamax-I, supplemented with 10% FCS, 100 U/ml penicillin and 100 μg/ml streptomycin. Cells are counted and resuspended in fresh medium at a concentration of 1×10^6/ml. Next, 1 ml of cell suspension is transferred to 5 ml culture tubes in the presence of test compounds (DEX, CpdA, CpdA analogues: 10^−7 to 10^−4 M) or vehicle (EtOH) and incubated for 24 or 48 hours at 37° C. • Double-staining of the cells with PI and annexin V is performed according to the instructions of the Annexin V kit (BD Biosciences). • Double-stained cells are analyzed by flow cytometry. […] Graphs are represented as the ratio of early apoptotic cells versus late apoptotic cells (a) or as total % of living cells (b).

[1] = system: A549 human lung epithelial cells; experiment: MTT test, cell viability of A549 cells; type: cell-based
Experimental: (§1) The MTT test is a standard assay addressing cell toxicity of a compound. It is based on the principle that after 3-4 hours of cell incubation with MTT (3-(4,5-dimethylthiazole-2-yl)-2,5-diphenyl tetrazolium bromide) so-called purple formazan crystals develop in living and early apoptotic cells. Dead cells don't produce formazan crystals.
(§2) Different cell lines were tested. Unless indicated differently, A549 human lung epithelial cells (derived from lung carcinoma) and L929sA murine fibroblast cells were cultured in DMEM with 10% FCS, 100 U/ml penicillin and 100 μg/ml streptomycin. Unless indicated differently, the human multiple myeloma cell lines L363, U266 and MM1.S were cultured in RPMI 1640 with Glutamax-I, supplemented with 10% FCS, 100 U/ml penicillin and 100 μg/ml streptomycin. Cells were seeded at 5000 cells/well (for adherent A549 and L929sA cells) or at 10000 cells/well (for the multiple myeloma lines in suspension) in 96 well plates. Cells were incubated in the presence of the respective synephrine compounds or vehicle (EtOH; for control test) in a final volume of 0.2 ml for 24 or 48 hours at 37° C. Subsequently, 20 μl of MTT solution (5 mg/ml in phosphate-buffered saline) was added to each well. After 4 hours incubation at 37° C., 80 μl of the extraction buffer (10% SDS, 0.01 M HCl) was added. After overnight incubation at room temperature, the optical densities at 590 nm were measured. Results are illustrated in FIGS. 2 to 6 and are expressed as percentage of viable cells as compared to vehicle-treated controls.
(§3) In a further MTT test, the activity of the synephrine derivatives on the inhibition of cell viability of non-immune cells was measured. […] Tests were performed for 24 hours and for 48 hours. The results are illustrated by FIGS. 5A and 5B for L929 cells, and by FIGS. 6A and 6B for A549 cells. It was observed that CpdA at 10^−5 M blocked cell viability of L929sA and A549 for not more than 10%.

MM1.S cell line = experiment: MTT test, cell viability of MM1.S cells; type: cell-based, human; details: 10% FCS, FIG. 4A
Experimental: as §1, §2
(§4) The MTT test was further extended to include alternative synephrine derivatives and a range of multiple myeloma cell lines for which the results are illustrated by FIGS. 3A, 3B and 4A. Human multiple myeloma cell lines L363, U266 and MM1.S were cultured in RPMI 1640 with Glutamax-I, supplemented with 10% FCS, 100 U/ml penicillin and 100 μg/ml streptomycin. Cells were seeded at 10000 cells/well in 96 well plates. Cells were incubated in the presence of test compounds or vehicle in a final volume of 0.2 ml for 24 or 48 hours at 37° C. The test compounds included in the test were the synephrine derivatives CpdA, Naphth, Benz and Isobut, and DEX as a comparative example. Subsequently, 20 μl of MTT solution (5 mg/ml in phosphate-buffered saline) was added to each well. After 4 hours incubation at 37° C., 80 μl of the extraction buffer (10% SDS, 0.01 M HCl) was added. After 48 hours incubation at room temperature, the optical densities at 590 nm were measured. Results are expressed as percentage of viable cells as compared to vehicle-treated controls.

[2] = system: multiple myeloma cells U266; experiment: MTT test, cell viability of U266 cells; type: cell-based, human; details: 10^−4 M, 10% FCS, FIG. 3A; for cytotoxicity at 100 µM: Homo sapiens, U-266, read-out: Block of U266 cell viability / cell killing
Experimental: as §1, §2, §4

L363 cell line = experiment: MTT test, cell viability of L363 cells; type: cell-based, human; details: 10% FCS, FIG. 3B; for Cell killing of L363 cells: 10^−5 M; for cytotoxicity at 100 µM: Homo sapiens, L-363, read-out: Block of L363 cell viability
Experimental: as §1, §2, §4

[3] = system: pE-selectin-Luc (E-selectin promoter); experiment: pE-selectin-Luc reporter gene assay in TNF-induced L929sA cells; type: cell-based, mouse; details: indicated concentrations, from -2 hours for 8 hours; TNF 2000 IU/ml 6 hours; FIG. 1
Description: L929sA mouse fibroblast cells were stably transfected with pE-selectine-Luc (also referred to as pELAM-luc) by the calcium phosphate precipitation procedure described by De Bosscher et al. in Proc. Natl. Acad. Sci. USA (1997) 94, 13504-13509. The co-transfected plasmid pPGKβGeobpA, conferring resistance to G418 and expressing constitutive β-galactosidase enzymatic activity, was used as an internal control. L929sA cells were transiently transfected by the DEAE-dextran transfection method described by De Bosscher et al. (cited supra).
Recombinant murine tumor necrosis factor (TNF) was produced according to a method standard in the art. Dexamethasone (hereinafter abbreviated as DEX) commercially available from Sigma, and 2-(4-acetoxyphenyl)-2-chloro-N-methyl-ethylammonium chloride (hereinafter abbreviated as compound A) was synthesized according to Louw et al. in Biochemical Pharmacology (1997) 53, 189-197). A stock solution was prepared in ethanol (for DEX) or DMSO (for both comparative compound A and for the compound of example 6 according to this invention, i.e. 1-[4-(benzoyloxy)phenyl]-2-[(tert-butoxy-carbonyl)-methylamino]ethyl-1H-imidazole-1-carboxylate), aliquoted and stored at −70° C.
Induction was performed in triplicate for each independent experiment, which was carried out at least twice. Induction with DEX, compound A, and for the compound of example 6 according to this invention at 1 μM, 10 μM or respectively any other indicated concentration were performed at −2 hours for a total of 8 hours, while TNF (2000 IU/ml) was added at time point zero and left on the cells for 6 hours. After induction, cells were lysed with a lysis buffer (commercially available from Tropix, Bedford, Massachussets) and samples were assayed according to the manufacturer's instructions (Promega Biotech).
In order to investigate whether the inhibitory effect of compound A or the compound of example 6 according to this invention is directed at the transcriptional level of NF-κB-driven genes, the NF-κB-dependent physiological promoter construct, pE-selectin-Luc stably integrated into L929sA cells, was tested. […] DEX-mediated and compound A-mediated inhibition of TNF-induced gene expression were used as controls (FIG. 1). In the appended figures, NI stands for non-induced (either in presence of solvent controls like ethanol or DMSO).

B-CLL cells = experiment: Annexin V/PI flow cytometric analysis of apoptosis in ex-vivo cultured B-CLL cells; type: cell-based, human; details: 24 hours
Experimental: Blood samples were obtained from B-CLL patients after informed consent according to institutional guidelines. CLL lymphocytes were isolated using Lymphoprep (Nycomed Pharma, Denmark) and re-suspended at a final concentration of 10−30×10^6 cells/ml in RPMI 1640 medium, supplemented with 10% heat-inactivated fetal bovine serum (FBS) (Greiner Bio-one, Wemmel, Belgium), 100 IU/ml penicillin, 100 μg/ml streptomycin, and 0.56 μg/mL fungizone (Gibco BRL, Merelbeke, Belgium). B-CLL cells were cultured in Dulbecco's Modified Eagle Medium (DMEM) (Gibco, Invitrogen Inc.) containing 10% FBS (Gibco, Invitrogen Inc.). For flow cytometric analysis of apoptosis, B-CLL cells were treated with the different compounds for 24 hours, 3×10^5 cells were removed from the culture medium, washed twice with cold PBS, and double stained with annexin V-fluorescein isothiocyanate (FITC) and propidium iodide (PI; Beckman Coulter, Miami, Fla.) in Annexin binding buffer, followed by analysis on a FC500PTM (Beckman Coulter, Nyon, Switzerland) flow cytometer. Flow cytometric data were analyzed using Cytomixs RXP software (Beckman Coulter, Nyon, Switzerland). To avoid non-specific fluorescence from dead cells, live cells were gated using forward and side scatter.
One of the early signs of apoptosis is the translocation of the membrane phospholipid phosphatidylserine from the cytoplasmic interface to the extracellular surface. Annexin V has a high affinity for the phospatidylserine-containing phospholipid bilayers. […] As the plasma membrane becomes increasingly permeable during the later stages of apoptosis, the DNA-binding dye PI can readily move across the cell membrane and bind to cellular DNA, providing a means to detect the loss of membrane integrity through mechanisms including necrosis. Three different cell populations can be observed in cells double-stained with AnnV-FITC and PI. […] Cells that stain with Ann V only are early apoptotic cells. And cells that stain with both AnnV and PI are late apoptotic/necrotic cells. The percentage of AnnV-positive B-CLL cells in the lymphocyte gate were measured by FACS and results were expressed as % apoptotic cells, i.e. sum of early apoptotic (AnnV+, PI−), and late apoptotic/dead cells (AnnV+, PI+). The percent of living cells was normalized to 100% living cells incubated in control medium with 0.1% EtOH. All measurements were made in duplicate and averaged.

[4] = MTT test, cell viability of L929sA fibroblasts; type: cell-based, murine; details: mouse, L929sA fibroblast cells; 10^−5 M; within 48 hours; FIG. 5B; read-out: Block of L929sA cell viability
Experimental: as §1, §2, §3

[5] = MTT test, cell viability of A549 cells; type: cell-based, human; details: human, A549 lung epithelial (carcinoma) cells; 10^−5 M; 48 hours; FIG. 6B; read-out: Block of A549 cell viability
Experimental: as §1, §2, §3

## CC(C)C[C@@H](C=O)NC(=O)[C@H](CC(C)C)NC(=O)[C@H](CC(C)C)NC(=O)OCc1ccccc1 [MG132, reference compound] (Cbz-Leu-Leu-Leu-aldehyde)
MM1.S cell lines
  Apoptosis (Annexin V/PI staining): also mediates apoptosis

## CN(CC(OC(=O)n1ccnc1)c1ccc(OC(=O)c2cccc3ccccc23)cc1)C(=O)OC(C)(C)C (centres unmarked) [Naphth, 1-[4-(1-naphthoyloxy)phenyl]-2-[(tert-butyloxycarbonyl)(methyl)amino]ethyl 1H-imida-zole-1-carboxylate]
[1]; 10^−4 M, 48 hours, FIG. 6B
  Block of A549 cell viability: 20%
[1]; 10^−5 M, 24 hours, FIG. 6A
  Block of A549 cell viability: about 10%
[1]; 10^−5 M, 48 hours, FIG. 6B
  Block of A549 cell viability: not more than 20%
MM1.S cell line; 10^−4 M
  Inhibition of MM1.S cell viability: almost completely
MM1.S cell line; 10^−5 M
  Inhibition of MM1.S cell viability: about 35%
[2]
  Block of U266 cell viability / cell killing: 70%
L363 cell line; 10^−4 M
  Block of L363 cell viability: 90%
L363 cell line
  Cell killing of L363 cells: 40%

## CCCCCC(=O)Oc1ccc(C(O)CN(C)C(=O)OC(C)(C)C)cc1 (centres unmarked) [example 6, 4-{2-[(tert-butoxycarbonyl)(methyl)amino]-1-hydroxyethyl}phenyl hexanoate]
[3]
  Inhibition of TNF-induced gene expression (E-selectin gene induction): observed in a dose-responsive manner

## Nc1nc(F)nc2c1ncn2[C@@H]1O[C@H](CO)[C@@H](O)[C@@H]1O [Fludarabine]
B-CLL cells; 5 · 10^−6M
  % apoptotic cells, CLL patient 1: 56%
  % apoptotic cells, CLL patient 2: 63%

## C[C@H]1C[C@@H]2[C@H]([C@@H](O)C[C@@]3(C)[C@H]2CC[C@]3(O)C(=O)COC(=O)CCC(=O)O)[C@@]2(C)C=CC(=O)C=C12 [Solumedrol]
B-CLL cells; 10^−7M
  % apoptotic cells, CLL patient 1: 60%
  % apoptotic cells, CLL patient 2: 34%

## CN(CC(OC(=O)n1ccnc1)c1ccc(OC(=O)c2ccccc2)cc1)C(=O)OC(C)(C)C (centres unmarked) [Benz, 1-[4-(benzoyloxy)phenyl]-2-[(tert-butoxycarbonyl)-methylamino]ethyl-1H-imidazole-1-carboxylate]
[4]
  cytotoxicity at 48 h: ≤ 20%
[5]
  cytotoxicity at 48 h: 10%
[1]; 10^−5 M, 24 hours, FIG. 6A
  Block of A549 cell viability: not able to block cell viability
[3]
  Inhibition of TNF-induced gene expression (E-selectin gene induction): effectively inhibit TNF-induced E-selectin gene induction
MM1.S cell line; 10^−5 M
  Inhibition of MM1.S cell viability: block cell viability completely
[2]
  cytotoxicity at 100 µM: 90%
L363 cell line
  Cell killing of L363 cells: 40%
L363 cell line; 10^−4 M
  cytotoxicity at 100 µM: 90%

## O=C(O)CCCc1ccc(N(CCCl)CCCl)cc1 [Chlorambucil]
B-CLL cells; 25 · 10^−7M
  % apoptotic cells, CLL patient 1: 51%
  % apoptotic cells, CLL patient 2: 46%

## CC(C)C(=O)Oc1ccc(C(CN(C)C(=O)OC(C)(C)C)OC(=O)n2ccnc2)cc1 (centres unmarked) [Isobut, 1-[4-(isobutanoyloxy)phenyl]-2-[(tert-butoxycarbonyl)-methylamino]ethyl-1H-imidazole-1-carboxylate]
[3]
  Inhibition of TNF-induced gene expression (E-selectin gene induction): effectively inhibit TNF-induced E-selectin gene induction
MM1.S cell line; 10^−5 M
  Inhibition of MM1.S cell viability: block cell viability completely
[2]
  cytotoxicity at 100 µM: 80%
L363 cell line
  Cell killing of L363 cells: 25%
L363 cell line; 10^−4 M
  cytotoxicity at 100 µM: 80%
